# Literature values, collected in patent US20050220913A1, “Novel in-expensive and efficient process for isolation of imperatorin, a potent inducible nitric oxide synthase inhibitor and anti-inflammatory drug candidate from Aegle marmelos Correa” (Council of Scientific and Industrial Research, priority 2004, published 2005).
# Key:
# [1] = test system: inducible nitric oxide synthase (iNOS); details: imperatorin isolated from Saposhnikovia divaricata; Yang et al. 1999
# [2] = test system: human promyelocytic leukaemia, HL-60 cells; details: at micromolar concentrations; imperatorin from roots of Angelica dahurica; Hyun-Ock et al. 2002
# HL-60 cells = details: Kawa et al. 2000
structure (smiles),measurement,setting,value
CC(C)=CCOc1c2occc2cc2ccc(=O)oc12 [Imperatorin],IC50 value for inhibition of nitrite production,[1],17.3 µg/mL
same,induction of apoptosis of HL-60 cells,[2],able to trigger apoptosis of HL-60 cells
same,activity of HL-60 cells by nitro blue tetrazolium (NBT) method,HL-60 cells,strong activity
